Here are results for one molecule from patent US20230364271A1, “METHODS AND COMPOSITIONS FOR INCREASING UPTAKE, INTERNALIZATION, AND/OR RETENTION OF SMALL MOLECULE LIGANDS” (CORNELL UNIVERSITY, priority 2020, published 2023).

The structures appear in SMILES notation.

Data set [1] concerns LNCaP cells. The data set can be described thus: Retention of internalized Lu^177-labelled agent in LNCaP cells (Example 1). Format: cell-based, human. The settings on record: for efflux out of the cells after internalization: 2 human prostate cancer cell lines (LNCaP and CWR22Rv1); for cell-associated counts retained: LNCaP. The protocol:
(§1) LNCaP or CWR22Rv1 cells were plated into 12-well plates overnight. Lu^177-J591 (0.5 μci/ml/well) or Lu^177-PSMA-617 (0.5 μci/ml/well) was then added, and the cells were incubated for 6 hours at 37° C. to allow internalization. Duplicate wells were used for each time point. After 6 hours of incubation, the cells were washed once with RPMI-10% FBS. 0.6 ml of 1% TritonX-100 was added per well for 2 wells as 0 time point, and 1.5 ml of RPMI-10% FBS was added to the remaining wells. The cells were incubated at 37° C. for 1 to 6 days. On day 1, 2, 3, 5, and 6, the medium was removed and 0.6 ml of 1% TritonX-100 was added to each well. The lysate was collected from each well and all samples were counted at day 6. Results are shown in Table 1 below (in % of time 0 counts) and FIGS. 1A-1B.

The test system of data set [2] is CWR22Rv1 cells. The data set can be described thus: Retention of internalized Lu^177-labelled agent in CWR22Rv1 cells (Example 1). Format: cell-based, human. As for the experimental part:
as §1

For data set [3], the system named is CWR22rv1 tumors. The data set is described as follows: Tumor uptake of PSMA-617-Lu^177 in CWR22rv1 xenografts with cold antibody (Example 4). The format is in vivo, BALB/c nude mice. The settings on record: PSMA-617-Lu^177 300 μci IV with PBS, day 3 post-injection, average. The protocol:
CWR22rv1 cells (5×10^6 cells/200 μl matrigel/mouse) were injected into 40 BALB/c nude mice. After tumors were established and growing, all mice were injected intravenously (IV) via tail vein with PSMA-617-Lu^177 (300 μci/per mouse) on day 0. The treatment groups were as follows.
All mice were euthanized 3 days after injection of PSMA-617-Lu^177. All tumors were harvested, weighed individually, and radioactivity counted.

Take `O=C([O-])CN1CCN(CC(=O)[O-])CCN(CC(=O)NCC2CCC(C(=O)N[C@@H](Cc3ccc4ccccc4c3)C(=O)NCCCC[C@H](NC(=O)N[C@@H](CCC(=O)O)C(=O)O)C(=O)O)CC2)CCN(CC(=O)[O-])CC1.[177Lu+3]` (stereo partly drawn) [Lu^177-PSMA-617]: the “efflux out of the cells after internalization” value in data set [1] (listed as PSMA 617-Lu^177) is given as “rapidly effluxed back out of the cell soon after internalization”; in data set [1] (listed as small molecule ligand), “rapidly effluxed out of the cells”. Also, the cell-associated counts retained in data set [1] (0 time (after 6 h incubation)) is 100.00 % of time 0 counts; in data set [1] (Day 1) it was 52.21 % of time 0 counts; in data set [1] (Day 2) it was 56.06 % of time 0 counts; in data set [1] (Day 3) it was 42.80 % of time 0 counts; in data set [1] (Day 5), 39.12 % of time 0 counts; in data set [1] (Day 6), 35.82 % of time 0 counts. Also, the cell-associated counts retained in data set [2] (CWR22Rv1, 0 time (after 6 h incubation)) was 100.00 % of time 0 counts; in data set [2] (CWR22Rv1, Day 1), 24.37 % of time 0 counts; in data set [2] (CWR22Rv1, Day 2), 23.99 % of time 0 counts; in data set [2] (CWR22Rv1, Day 3) it was 10.28 % of time 0 counts; in data set [2] (CWR22Rv1, Day 5), 9.39 % of time 0 counts; in data set [2] (CWR22Rv1, Day 6), 7.64 % of time 0 counts. In data set [3], the tumor radioactivity is 150 cpm/mg of tumor.
